Results published in publication PMC7311426, “An amphipathic peptide with antibiotic activity against multidrug-resistant Gram-negative bacteria” (Nature Communications, 2020).
≈ marks a conversion by molar mass, not a printed value. Where two headings read alike, the source gives them in different places.

Legend:
Experiment in all cases: microbe, parasite or virus in culture
A. baumannii = settings: Acinetobacter baumannii, mode of 6 replicates
How it was run: (§1)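 MICs were scored by eye after 18-20 h static incubation at 37 °C, with bacteria at 5 × 10^5 CFU mL^−1 in MHB. Peptides were serially diluted 2-fold over 12 points, top 128 or 64 μg mL^−1. CAMHB (CLSI) and 1% agarose-MHB variants were also run, at least six replicates.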

E. coli = settings: Escherichia coli
How it was run: as §1

S. aureus = test system: S. aureus
How it was run: as §1

P. aeruginosa = settings: Pseudomonas aeruginosa
How it was run: as §1

## C[C@@H](O)[C@H]1C(=O)N2C(C(=O)O)=C(S[C@@H]3CN[C@H](C(=O)N(C)C)C3)[C@H](C)[C@H]12 [Meropenem, meropenem, reference compound]
A. baumannii; ATCC19636, read-out: BMD MIC, A. baumannii ATCC 19636 type strain, CAMHB
  MIC: 1 µg/mL (≈ 2.61 µM)
A. baumannii; ATCC19636, read-out: BMD MIC, A. baumannii ATCC 19636 type strain, MHB
  MIC: 0.5 µg/mL (≈ 1.3 µM)
A. baumannii; read-out: BMD MIC, A. baumannii Greece CI, XDR, PmxR, MHB
  MIC: > 16 µg/mL
E. coli; ATCC25922, read-out: BMD MIC, E. coli ATCC 25922 FDA control strain, CAMHB, mode of 6 replicates
  MIC: ≤ 0.06 µg/mL
E. coli; ATCC25922, read-out: BMD MIC, E. coli ATCC 25922 FDA control strain, MHB, mode of 6 independent biological replicates
  MIC: 0.015 µg/mL (≈ 0.0391 µM)
E. coli; ATCC700926 / MG1655, read-out: BMD MIC
  MIC: ≤ 0.03 µg/mL
E. coli; ATCC700928, read-out: BMD MIC, E. coli ATCC 700928 CFT073 UPEC, CAMHB, mode of 6 replicates
  MIC: ≤ 0.25 µg/mL
E. coli; read-out: BMD MIC
  MIC: ≤ 0.25 µg/mL
E. coli; read-out: MIC against E. coli AID#172 MDR clinical isolate, BMD
  MIC: 0.125 µg/mL (≈ 0.326 µM)
E. coli; read-out: MIC against ESBL producing E. coli DSA 443, BMD
  MIC: 0.032 µg/mL (≈ 0.0834 µM)
E. coli; read-out: MIC, broth microdilution, E. coli AUD172 parent strain not exposed to drug
  MIC: 0.015 µg/mL (≈ 0.0391 µM)
E. coli; read-out: MIC, broth microdilution, E. coli AUD172 spontaneous mutant, AA139 selection 4X, plate 2, colony 2, drug-free passage 1
  MIC: 0.015 µg/mL (≈ 0.0391 µM)
E. coli; read-out: MIC, broth microdilution, E. coli AUD172 spontaneous mutant, AA139 selection 4X, plate 2, colony 2, drug-free passage 5
  MIC: 0.03 µg/mL (≈ 0.0782 µM)
S. aureus; S. aureus ATCC 25923 MSSA, CAMHB, mode of 6 replicates
  BMD MIC: 0.06 µg/mL
S. aureus; Staphylococcus aureus, ATCC25923 / MSSA, read-out: BMD MIC
  MIC: 0.06 µg/mL (≈ 0.156 µM)
P. aeruginosa; ATCC27853, read-out: BMD MIC, P. aeruginosa ATCC 27853 control strain, CAMHB, mode of 6 replicates
  MIC: ≤ 0.25 µg/mL
P. aeruginosa; ATCC27853, read-out: MIC, broth microdilution, P. aeruginosa ATCC 27853 spontaneous mutant, AA139 selection 4X, plate 1, colony 1, drug-free passage 1
  MIC: 0.25 µg/mL (≈ 0.652 µM)
P. aeruginosa; ATCC27853, read-out: MIC, broth microdilution, P. aeruginosa ATCC 27853 spontaneous mutant, AA139 selection 4X, plate 1, colony 1, drug-free passage 5
  MIC: 0.5 µg/mL (≈ 1.3 µM)
P. aeruginosa; ATCC27853, read-out: MIC, broth microdilution, P. aeruginosa ATCC 27853 spontaneous mutant, AA139 selection 4X, plate 1, colony 2, drug-free passage 1
  MIC: 0.5 µg/mL (≈ 1.3 µM)
P. aeruginosa; ATCC27853, read-out: MIC, broth microdilution, P. aeruginosa ATCC 27853 spontaneous mutant, AA139 selection 4X, plate 1, colony 2, drug-free passage 5
  MIC: 0.25 µg/mL (≈ 0.652 µM)
P. aeruginosa; ATCC27853, read-out: MIC, broth microdilution, P. aeruginosa ATCC 27853 spontaneous mutant, AA139 selection 4X, plate 1, colony 3, drug-free passage 1
  MIC: 1 µg/mL (≈ 2.61 µM)
P. aeruginosa; ATCC27853, read-out: MIC, broth microdilution, P. aeruginosa ATCC 27853 spontaneous mutant, AA139 selection 4X, plate 1, colony 3, drug-free passage 5
  MIC: 0.5 µg/mL (≈ 1.3 µM)
P. aeruginosa; ATCC27853, read-out: MIC, broth microdilution, P. aeruginosa ATCC 27853 spontaneous mutant, AA139 selection 4X, plate 1, colony 4, drug-free passage 1
  MIC: 1 µg/mL (≈ 2.61 µM)
P. aeruginosa; ATCC27853, read-out: MIC, broth microdilution, P. aeruginosa ATCC 27853 spontaneous mutant, AA139 selection 4X, plate 1, colony 4, drug-free passage 5
  MIC: 0.5 µg/mL (≈ 1.3 µM)
P. aeruginosa; ATCC27853, read-out: MIC, broth microdilution, P. aeruginosa ATCC 27853 spontaneous mutant, AA139 selection 4X, plate 1, colony 5, drug-free passage 1
  MIC: 0.25 µg/mL (≈ 0.652 µM)
P. aeruginosa; ATCC27853, read-out: MIC, broth microdilution, P. aeruginosa ATCC 27853 spontaneous mutant, AA139 selection 4X, plate 1, colony 5, drug-free passage 5
  MIC: 0.5 µg/mL (≈ 1.3 µM)
P. aeruginosa; ATCC27853, read-out: MIC, broth microdilution, P. aeruginosa ATCC 27853 spontaneous mutant, AA139 selection 4X, plate 1, colony 6, drug-free passage 1
  MIC: 0.5 µg/mL (≈ 1.3 µM)
P. aeruginosa; ATCC27853, read-out: MIC, broth microdilution, P. aeruginosa ATCC 27853 spontaneous mutant, AA139 selection 4X, plate 1, colony 6, drug-free passage 5
  MIC: 0.5 µg/mL (≈ 1.3 µM)
P. aeruginosa; ATCC27853, read-out: MIC, broth microdilution, P. aeruginosa ATCC 27853 spontaneous mutant, AA139 selection 4X, plate 2, colony 1, drug-free passage 1
  MIC: 0.25 µg/mL (≈ 0.652 µM)
P. aeruginosa; ATCC27853, read-out: MIC, broth microdilution, P. aeruginosa ATCC 27853 spontaneous mutant, AA139 selection 4X, plate 2, colony 1, drug-free passage 5
  MIC: 0.25 µg/mL (≈ 0.652 µM)
P. aeruginosa; ATCC27853, read-out: MIC, broth microdilution, P. aeruginosa ATCC 27853 spontaneous mutant, AA139 selection 4X, plate 2, colony 2, drug-free passage 1
  MIC: 0.5 µg/mL (≈ 1.3 µM)
P. aeruginosa; ATCC27853, read-out: MIC, broth microdilution, P. aeruginosa ATCC 27853 spontaneous mutant, AA139 selection 4X, plate 2, colony 2, drug-free passage 5
  MIC: 0.25 µg/mL (≈ 0.652 µM)
P. aeruginosa; ATCC27853, read-out: MIC, broth microdilution, P. aeruginosa ATCC 27853 spontaneous mutant, AA139 selection 4X, plate 2, colony 3, drug-free passage 1
  MIC: 0.5 µg/mL (≈ 1.3 µM)
P. aeruginosa; ATCC27853, read-out: MIC, broth microdilution, P. aeruginosa ATCC 27853 spontaneous mutant, AA139 selection 4X, plate 2, colony 3, drug-free passage 5
  MIC: 0.25 µg/mL (≈ 0.652 µM)
P. aeruginosa; ATCC27853, read-out: MIC, broth microdilution, P. aeruginosa ATCC 27853 spontaneous mutant, AA139 selection 4X, plate 2, colony 4, drug-free passage 1
  MIC: 0.5 µg/mL (≈ 1.3 µM)
P. aeruginosa; ATCC27853, read-out: MIC, broth microdilution, P. aeruginosa ATCC 27853 spontaneous mutant, AA139 selection 4X, plate 2, colony 4, drug-free passage 5
  MIC: 0.25 µg/mL (≈ 0.652 µM)
P. aeruginosa; ATCC27853, read-out: MIC, broth microdilution, P. aeruginosa ATCC 27853 spontaneous mutant, AA139 selection 8X, plate 1, colony 1, drug-free passage 1
  MIC: 0.5 µg/mL (≈ 1.3 µM)
P. aeruginosa; ATCC27853, read-out: MIC, broth microdilution, P. aeruginosa ATCC 27853 spontaneous mutant, AA139 selection 8X, plate 1, colony 1, drug-free passage 5
  MIC: 0.5 µg/mL (≈ 1.3 µM)
P. aeruginosa; ATCC27853, read-out: MIC, broth microdilution, P. aeruginosa ATCC 27853 spontaneous mutant, AA139 selection 8X, plate 1, colony 2, drug-free passage 1
  MIC: 0.25 µg/mL (≈ 0.652 µM)
P. aeruginosa; ATCC27853, read-out: MIC, broth microdilution, P. aeruginosa ATCC 27853 spontaneous mutant, AA139 selection 8X, plate 1, colony 2, drug-free passage 5
  MIC: 0.5 µg/mL (≈ 1.3 µM)
P. aeruginosa; ATCC27853, read-out: MIC, broth microdilution, P. aeruginosa ATCC 27853 spontaneous mutant, AA139 selection 8X, plate 1, colony 3, drug-free passage 1
  MIC: 0.25 µg/mL (≈ 0.652 µM)
P. aeruginosa; ATCC27853, read-out: MIC, broth microdilution, P. aeruginosa ATCC 27853 spontaneous mutant, AA139 selection 8X, plate 1, colony 3, drug-free passage 5
  MIC: 0.25 µg/mL (≈ 0.652 µM)
P. aeruginosa; ATCC27853, read-out: MIC, broth microdilution, P. aeruginosa ATCC 27853 spontaneous mutant, AA139 selection 8X, plate 1, colony 4, drug-free passage 1
  MIC: 0.5 µg/mL (≈ 1.3 µM)
P. aeruginosa; ATCC27853, read-out: MIC, broth microdilution, P. aeruginosa ATCC 27853 spontaneous mutant, AA139 selection 8X, plate 1, colony 4, drug-free passage 5
  MIC: 0.5 µg/mL (≈ 1.3 µM)
P. aeruginosa; ATCC27853, read-out: MIC, broth microdilution, P. aeruginosa ATCC 27853 spontaneous mutant, AA139 selection 8X, plate 1, colony 5, drug-free passage 1
  MIC: 0.5 µg/mL (≈ 1.3 µM)
P. aeruginosa; ATCC27853, read-out: MIC, broth microdilution, P. aeruginosa ATCC 27853 spontaneous mutant, AA139 selection 8X, plate 1, colony 5, drug-free passage 5
  MIC: 0.25 µg/mL (≈ 0.652 µM)
P. aeruginosa; read-out: BMD MIC, P. aeruginosa FADDI-070, MDR, PmxR, MHB/CAMHB, mode of 6 replicates
  MIC: 1 µg/mL (≈ 2.61 µM)
P. aeruginosa; read-out: MIC, broth microdilution, P. aeruginosa UNT 138-1 spontaneous mutant, AA139 selection 4X, plate 1, colony 1, drug-free passage 1
  MIC: 0.12 µg/mL (≈ 0.313 µM)
P. aeruginosa; read-out: MIC, broth microdilution, P. aeruginosa UNT 138-1 spontaneous mutant, AA139 selection 4X, plate 1, colony 1, drug-free passage 5
  MIC: 0.12 µg/mL (≈ 0.313 µM)
P. aeruginosa; read-out: MIC, broth microdilution, P. aeruginosa UNT 138-1 spontaneous mutant, AA139 selection 4X, plate 1, colony 2, drug-free passage 1
  MIC: 0.12 µg/mL (≈ 0.313 µM)
P. aeruginosa; read-out: MIC, broth microdilution, P. aeruginosa UNT 138-1 spontaneous mutant, AA139 selection 4X, plate 1, colony 2, drug-free passage 5
  MIC: 0.25 µg/mL (≈ 0.652 µM)
P. aeruginosa; read-out: MIC, broth microdilution, P. aeruginosa UNT 138-1 spontaneous mutant, AA139 selection 4X, plate 1, colony 3, drug-free passage 1
  MIC: 0.06 µg/mL (≈ 0.156 µM)
P. aeruginosa; read-out: MIC, broth microdilution, P. aeruginosa UNT 138-1 spontaneous mutant, AA139 selection 4X, plate 1, colony 3, drug-free passage 5
  MIC: 0.12 µg/mL (≈ 0.313 µM)
P. aeruginosa; read-out: MIC, broth microdilution, P. aeruginosa UNT 138-1 spontaneous mutant, AA139 selection 4X, plate 1, colony 4, drug-free passage 1
  MIC: 0.06 µg/mL (≈ 0.156 µM)
P. aeruginosa; read-out: MIC, broth microdilution, P. aeruginosa UNT 138-1 spontaneous mutant, AA139 selection 4X, plate 1, colony 4, drug-free passage 5
  MIC: 0.12 µg/mL (≈ 0.313 µM)
P. aeruginosa; read-out: MIC, broth microdilution, P. aeruginosa UNT 138-1 spontaneous mutant, AA139 selection 4X, plate 1, colony 5, drug-free passage 1
  MIC: 0.12 µg/mL (≈ 0.313 µM)
P. aeruginosa; read-out: MIC, broth microdilution, P. aeruginosa UNT 138-1 spontaneous mutant, AA139 selection 4X, plate 1, colony 5, drug-free passage 5
  MIC: 0.12 µg/mL (≈ 0.313 µM)
P. aeruginosa; read-out: MIC, broth microdilution, P. aeruginosa UNT 138-1 spontaneous mutant, AA139 selection 4X, plate 1, colony 6, drug-free passage 1
  MIC: 0.06 µg/mL (≈ 0.156 µM)
P. aeruginosa; read-out: MIC, broth microdilution, P. aeruginosa UNT 138-1 spontaneous mutant, AA139 selection 4X, plate 1, colony 6, drug-free passage 5
  MIC: 0.25 µg/mL (≈ 0.652 µM)
P. aeruginosa; read-out: MIC, broth microdilution, P. aeruginosa UNT 138-1 spontaneous mutant, AA139 selection 4X, plate 1, colony 7, drug-free passage 1
  MIC: 0.06 µg/mL (≈ 0.156 µM)
